Test results published in US20190298840A1, “FORMULATIONS COMPRISING HETEROCYCLIC RING SYSTEMS AND USES THEREOF” (Particle Sciences, Inc., priority 2016, published 2019).

Tests used:
IgG = IgG binding experiment, free IgG measured after overnight binding (FIG. 10); parameters: species or system human; conditions: PBS and water conditions
Protocol: Human IgG1 or albumin shall be used as the biomolecule of interest.
In separate trials, the experiment was done in presence of water and PBS buffer solutions. The percentage of unbound IgG and pyridinium bound IgG were determined by measuring the free IgG (protein) after the protein was allowed to bind overnight with pyridinium constructs.

rabbit IgG = experiment: ELISA with pyridinium-biotin construct on IgG coated, BSA blocked wells vs BSA only wells (FIG. 20); format: binding; conditions: PBS buffer; femtomole range of construct; avidin-HRP detection
Text: Another variation of ELISA assay is one in which the plate wells are first coated with rabbit IgG. After a wash with PBS buffer, the IgG coated wells are blocked with bovine serum albumin (BSA) to saturate the remaining surface of the wells in order to lower background noise. A set of control wells are coated and blocked with BSA only as described above. The IgG coated and BSA blocked wells are then reacted with pyridinium-biotin construct in PBS buffer. Increasing amounts of with pyridinium-biotin construct in femtomole range are added in different wells. Those wells are washed with PBS buffer and reacted with constant amount of avidin-Horseradish peroxidase (HRP) in PBS. The colorimetric product of the reaction is then detected by an ELISA plate reader.

Immunoglobulin G (IgG) = experiment: Microscale thermophoresis binding affinity with IgG (Monolith NT.115); conditions: construct 500 nM, IgG 12.5 μM-350 pM
Protocol: (§1) Binding affinities of pyridinium constructs with macromolecules were measure using Monolith NT.115 system developed by Nano Temper technology (https://nanotempertech.com/monolith/). The Monolith NT.115 equipment measures the strength of the interactions between a fluorescently labeled or intrinsically fluorescent sample and a binding partner such as a macromolecule are measured while a temperature gradient is applied over time. The molecular mobility of a fluorescently labeled construct in a thermo gradient when alone and in presence of increasing concentrations of binding partner is compared. From this, binding affinity (Kd) is calculated from a fitted curve that plots normalized fluorescence against concentration of ligand.
The experiment was conducted to measure the binding affinity of the pyridinium construct containing fluorescein with increasing concentrations of Immunoglobulin G (IgG) in presence of PBS buffer and saline. The results of the binding affinity curve at increasing concentrations of IgG in two different solutions (PBS & Saline) are shown in FIG. 16.
(§2) The IgG protein was tested at a concentration range of 12.5 μM-350 pM and the pyridinium-fluorescein construct was at a concentration of 500 nM. Likewise, for experiments involving HSA, the HSA protein was at a concentration range of 125 μM-3.5 nM and the pyridinium-fluorescein construct was at a concentration of 500 nM.

[1] = biological target: human serum albumin (HSA) (Homo sapiens, UniProt P02768); experiment: Microscale thermophoresis binding affinity with HSA (Monolith NT.115); conditions: construct 500 nM, HSA 125 μM-3.5 nM, compared with IgG
human serum albumin (HSA), sequence (P02768 25-609): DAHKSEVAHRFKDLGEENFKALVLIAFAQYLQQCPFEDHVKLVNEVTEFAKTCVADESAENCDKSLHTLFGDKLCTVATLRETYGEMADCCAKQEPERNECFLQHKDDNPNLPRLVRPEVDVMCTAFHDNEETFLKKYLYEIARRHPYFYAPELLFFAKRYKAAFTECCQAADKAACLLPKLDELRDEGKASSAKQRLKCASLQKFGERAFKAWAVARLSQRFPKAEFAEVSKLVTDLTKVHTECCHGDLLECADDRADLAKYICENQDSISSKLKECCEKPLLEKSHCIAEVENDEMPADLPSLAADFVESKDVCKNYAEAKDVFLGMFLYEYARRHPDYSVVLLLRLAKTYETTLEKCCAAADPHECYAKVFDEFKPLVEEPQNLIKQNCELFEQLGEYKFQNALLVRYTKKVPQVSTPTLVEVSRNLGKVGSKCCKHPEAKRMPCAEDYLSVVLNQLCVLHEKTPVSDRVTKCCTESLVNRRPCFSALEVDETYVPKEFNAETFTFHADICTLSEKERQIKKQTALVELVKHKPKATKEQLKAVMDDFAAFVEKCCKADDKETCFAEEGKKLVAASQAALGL
Protocol: as §1, §2
The experiment was repeated with human serum albumin (HSA) instead of IgG under similar conditions. The results of the binding affinity curve at increasing concentrations of HSA in two different solutions (PBS & Saline) are shown in FIG. 17.

CCCCCCCCCCCCCCCC[N+](C)(C)C.[Br-] [CTAB, Cetyl trimethylammonium bromide]
binding to IgG (IgG): did not bind to the IgG protein

O=C(CCCCC1SCC2NC(=O)NC21)NCC[n+]1ccccc1 (stereo not drawn) [pyridinium constructs, 1-(2-(5-(2-oxohexahydro-1H-thieno[3,4-d]imidazol-4-yl)pentanamido)ethyl)pyridinium]
binding affinity in ELISA, IgG vs BSA dilution curves (rabbit IgG): strong binding affinity of IgG even at lower concentrations when compared with that of BSA

O=C(NCC[n+]1ccccc1)c1ccc2c(c1)C1(OC2=O)c2ccc(O)cc2Oc2cc(O)ccc21 [pyridinium-fluorescein construct, 1-(2-(3′,6′-dihydroxy-3-oxo-3H-spiro[isobenzofuran-1,9′-xanthene]-6-ylcarboxamido)ethyl)pyridinium]
Kd (Immunoglobulin G (IgG); in PBS): 0.02 µM | Kd (Immunoglobulin G (IgG); in saline): 1.5 µM | binding affinity to HSA ([1]; PBS solution): much lower than that of IgG | binding affinity to HSA ([1]; saline solution): comparable to that of IgG
